How the values were obtained:
Format in all cases: cell-based
[1] = test system: CH1 human ovarian carcinoma cell line; test: 96 h growth inhibition, sulforhodamine B assay, CH1; conditions: 96 h exposure, v = variable (mean)
[2] = test system: CH1dox^R human ovarian carcinoma cell line (doxorubicin resistant); test: 96 h growth inhibition, sulforhodamine B assay, CH1doxR; conditions: for IC50: 96 h exposure, growth inhibition; for RF resistance factor: IC50 resistant line/IC50 parent line: CH1dox^R / CH1
[3] = test system: SKOV3 human ovarian carcinoma cell line; test: 96 h growth inhibition, sulforhodamine B assay, SKOV3; conditions: 96 h exposure, v = variable (mean)
[4] = test system: CH1cis^R human ovarian carcinoma cell line (cisplatin resistant); test: 96 h growth inhibition, sulforhodamine B assay, CH1cisR; conditions: for IC50: 96 h exposure, growth inhibition, v = variable (mean); for RF resistance factor: IC50 resistant line/IC50 parent line: CH1cis^R / CH1
[5] = test system: A2780cis^R human ovarian carcinoma cell line (cisplatin resistant); test: 96 h growth inhibition, sulforhodamine B assay, A2780cisR; conditions: for IC50: 96 h exposure, growth inhibition, v = variable (mean); for RF resistance factor: IC50 resistant line/IC50 parent line: A2780cis^R / A2780
[6] = test system: A2780 human ovarian carcinoma cell line; test: 96 h growth inhibition, sulforhodamine B assay, A2780; conditions: 96 h exposure, v = variable (mean)
[7] = test system: T. brucei (S427) bloodstream trypomastigotes; test: Trypanosoma brucei bloodstream trypomastigote culture
T. cruzi (MHOM/BR/00/Y) = test: Trypanosoma cruzi in mouse peritoneal macrophages
Protocol: Trypanosoma cruzi: […] Drug activity was determined from the % of infected macrophages in treated cultures. Nifurtimox was used as the positive control.

Row | Compound | IC50 [1] [µM] | IC50 [2] [µM] | RF resistance factor: IC50 resistant line/IC50 parent line [2] | IC50 [3] [µM] | IC50 [4] [µM] | RF resistance factor: IC50 resistant line/IC50 parent line [4] | IC50 [5] [µM] | RF resistance factor: IC50 resistant line/IC50 parent line [5] | IC50 [6] [µM] | % Inhibition, Trypanosoma brucei ([7]; 0.1 μM) [%] | % Inhibition, Trypanosoma brucei ([7]; 0.3 μM) [%] | % Inhibition, Trypanosoma brucei ([7]; 1 μM) [%] | % Inhibition, Trypanosoma brucei ([7]; 3 μM) [%] | % Inhibition, Trypanosoma brucei ([7]; 10 μM) [%] | % Inhibition, Trypanosoma brucei ([7]; 30 μM) [%] | % Inhibition, Trypanosoma brucei ([7]; 0.03 μM) [%] | % Inhibition, Trypanosoma cruzi (T. cruzi (MHOM/BR/00/Y); 1 μM) [%] | % Inhibition, Trypanosoma cruzi (T. cruzi (MHOM/BR/00/Y); 3 μM) [%] | % Inhibition, Trypanosoma cruzi (T. cruzi (MHOM/BR/00/Y); 10 μM) [%] | % Inhibition, Trypanosoma cruzi (T. cruzi (MHOM/BR/00/Y); 30 μM) [%]
1 | 4,4′-Vinylidenedipyridine bis[2,2′:6′,2″-terpyridine platinum II] tetrafluoroborate [Compound A14] | 1.35 | 5.1 | 3.8 | 1.3 | 0.63 | 0.46 | 2.4 | 1.5 | 1.6 |  |  |  |  |  |  |  |  |  |  | 
2 | 4,4′-Vinylidenedipyridine bis[4′-(4-bromophenyl)-2,2′:6′,2″-terpyridine platinum II]tetrafluoroborate [Compound Q14] | 2 | 1.9 | 0.9 | 4.7 | 2.8 | 1.4 | 2.3 |  |  |  |  |  |  |  |  |  |  |  |  | 
3 | 4,4′-Vinylidenedipyridine bis[4′-chloro-2,2′:6′,2″-terpyridine platinum II]tetrafluoroborate [Compound I14] | 15 | 7.8 | 0.5 | 15 | 17 | 1.1 | 19 |  |  |  |  |  |  |  |  |  |  |  |  | 
4 | 4-Picoline 4′-amino-2,2′:6′,2″-terpyridine platinum II tetrafluoroborate [X] | 15.1 | 17 | 1.1 | 25 | 16.5 | 1.1 | 21 | 0.8 | 25 | 0 | 0 | 100 | 100 | 100 | 100 |  |  |  |  | 
5 | Brc1cc[n+]([Pt-2]23[n+]4ccccc4-c4cccc([n+]42)-c2cccc[n+]23)cc1.F[B-](F)(F)F.F[B-](F)(F)F [Compound A1] | 2.1 | 0.85 | 0.41 | 9.2 | 2.1 | 1.0 | 6.7 | 1.16 | 5.8 | 100 | 100 | 100 | 100 | 100 | 100 | 100 |  |  |  | 
6 | CC(=O)c1cc[n+]([Pt-2]23[n+]4ccccc4-c4cccc([n+]42)-c2cccc[n+]23)cc1.F[B-](F)(F)F.F[B-](F)(F)F [Compound A2] | 2.2 | 1.18 | 0.54 | 11.1 | 2.3 | 1.05 | 7.5 | 1.25 | 5.9 | 62.7 | 86.4 | 100 | 100 | 100 | 100 | 50.0 | 3.8 |  |  | 
7 | CN(C)c1cc[n+]([Pt-2]23[n+]4ccccc4-c4cccc([n+]42)-c2cccc[n+]23)cc1.F[B-](F)(F)F.F[B-](F)(F)F [Compound A3] | 6.1 | 3.95 | 0.6 | 13 | 7.5 | 1.2 | 21.5 | 1.3 | 16 | 44.6 | 100 | 100 | 100 | 100 | 100 |  | 30.3 | 85.8 | 100 | 99.8
8 | F[B-](F)(F)F.F[B-](F)(F)F.Fc1cccc[n+]1[Pt-2]12[n+]3ccccc3-c3cccc([n+]31)-c1cccc[n+]12 [Compound A4] | 15.5 | 5.4 | 0.3 | > 100 | 14 | 0.9 | > 100 |  | 21.5 |  |  | 100 | 100 | 100 | 100 |  | 3.0 | 6.0 | 93 | 

— US20020013306A1, “TERPYRIDINE-PLATINUM(II) COMPLEXES” (priority 1996, published 2002)
